Patent US20210052563A1, “PROTON PUMP INHIBITORS AND METHODS OF USE IN CHEMORADIATION-INDUCED TISSUE INFLAMMATION AND SCARRING” (Baylor College of Medicine, priority 2018, published 2021)

Experiments:
[1] = system: radiation-induced dermatitis; experiment: Mouse model of radiation-induced dermatitis: skin appearance and dermatitis scoring; assay type: in vivo, C57BL/6J mice
Procedure: In vivo study: mouse model of radiation-induced dermatitis: a 30-day study was conducted using C57BL/6J mice (Jackson Laboratories, Bar Harbor, Me.) to assess the efficacy of dermaprazole in mitigating radiation-induced dermatitis. The experiment consisted of 1 group receiving no radiation (Group 1) and 5 groups receiving radiation (Groups 2 to 6) (Table 2) from an X-ray source. First, all the animals were prepared for experiment by removing hair from the flank area using an electric shaver and hair removal cream. The lack of skin irritation from the shaving procedure was visually confirmed prior to randomization. […] Dermaprazole was evaluated in a prophylactic (treatment schedule from day 1 to day 30) and therapeutic (treatment schedule from day 10 to day 30) course. For the prophylactic course, low dose (1%, Group 2) and high dose (2%, Group 3) of dermaprazole were evaluated. For the therapeutic course (Group 4), only the high dose was evaluated. […] The photographs were blindly evaluated and scored by a certified dermatologist using Common Terminology Criteria for Adverse Events (CTCAE; version 4.0)(79): 0=normal skin appearance; 1=mild erythema; 2=moderate-to-severe erythema; 3=desquamation of 25-50% of irradiated area; 4=desquamation of >50% irradiated area; and 5=frank ulcer. […]

[2] = system: radiation-induced dermatitis; experiment: Mouse model of radiation-induced dermatitis: histopathology (H&E, Masson's Trichrome, CD11b, F4/80); assay type: in vivo, C57BL/6J mice
Procedure: In vivo study: mouse model of radiation-induced dermatitis: a 30-day study was conducted using C57BL/6J mice (Jackson Laboratories, Bar Harbor, Me.) to assess the efficacy of dermaprazole in mitigating radiation-induced dermatitis. The experiment consisted of 1 group receiving no radiation (Group 1) and 5 groups receiving radiation (Groups 2 to 6) (Table 2) from an X-ray source. First, all the animals were prepared for experiment by removing hair from the flank area using an electric shaver and hair removal cream. The lack of skin irritation from the shaving procedure was visually confirmed prior to randomization. Twenty-four hours later, radiation was delivered to pre-defined area (2×2 cm) on the flank of the animals in Groups 2 to 6. To induce dermatitis, the animals were anesthetized using 4% isoflurane in oxygen until a deep plane of anesthesia was achieved. Subsequently, the animals were placed under lead shielding (Braintree Scientific, Braintree, Mass.) to protect the remaining part of the body and expose the flank to a total radiation dose of 30 Gy fractionated as 2×15 Gy on study days 0 and 7 using the same settings described above. Dermaprazole was evaluated in a prophylactic (treatment schedule from day 1 to day 30) and therapeutic (treatment schedule from day 10 to day 30) course. For the prophylactic course, low dose (1%, Group 2) and high dose (2%, Group 3) of dermaprazole were evaluated. For the therapeutic course (Group 4), only the high dose was evaluated. Similarly, the sham (Group 1) and vehicle (Group 5) groups were treated with placebo cream containing no active drug starting from day 0 of the study. As a positive treatment control, 1% hydrocortisone (Group 6) was applied starting from day 0. […] The photographs were blindly evaluated and scored by a certified dermatologist using Common Terminology Criteria for Adverse Events (CTCAE; version 4.0)(79): 0=normal skin appearance; 1=mild erythema; 2=moderate-to-severe erythema; 3=desquamation of 25-50% of irradiated area; 4=desquamation of >50% irradiated area; and 5=frank ulcer. […]

[3] = system: bleomycin-induced lung injury; conditions: systemic administration; cited from earlier work
[4] = system: chemotherapy-resistant human cancer cell lines; conditions: PPI pretreatment vs no pretreatment; melanoma, colon, breast and ovarian cancer cell lines; cited from earlier work

SMILES | skin necrosis ([1]; 16 days and 30 days post-irradiation) | animals with no effect on healing of the wounds ([1]; once daily topical, 30-day model) | ulceration (H&E stain) ([2]; day 30) | collagen accumulation (Masson's Trichrome stain) ([2]; days 16 and 30) | CD11b and F4/80 positive inflammatory cells at the injury site ([2]; immunohistochemical staining of irradiated skin) | lung inflammation and fibrosis [3] | change of IC50 values of cisplatin, vinblastine and 5-fluorouracil [4]
C[C@]12CCC(=O)C=C1CC[C@@H]1[C@@H]2[C@@H](O)C[C@@]2(C)[C@H]1CC[C@]2(O)C(=O)CO [1% hydrocortisone, hydrocortisone] | severe skin necrosis | 90% | ulceration is seen by day 30 | Increased collagen deposition | Increased number of inflammatory cells |  | 
COc1ccc2nc([S@@+]([O-])Cc3ncc(C)c(OC)c3C)[nH]c2c1 [esomeprazole] |  |  |  |  |  | suppresses lung inflammation and fibrosis | order of magnitude reduction
